The source of these data is patent US7763598B2, “1α-hydroxy-2-(3′-hydroxypropylidene)-19-nor-vitamin D compounds with a 1,1-dimethylpropyl side chain” (Wisconsin Alumni Research Foundation, priority 2006, dated 2010).

Experiment [1] deals with Human promyelocytic leukemia (HL60) cells. Description: HL-60 differentiation (nitro blue tetrazolium reduction). Format: cell-based. The settings on record: FIG. 2; for EC50: HL60 cells, 4 days, NBT reduction. As to the method: The study drugs were dissolved in ethanol and the concentrations determined using UV spectrophotometry. Serial dilutions were prepared so that a range of drug concentrations could be tested without changing the final concentration of ethanol (≦0.2%) present in the cell cultures.
Human promyelocytic leukemia (HL60) cells were grown in RPMI-1640 medium containing 10% fetal bovine serum. The cells were incubated at 37° C. in the presence of 5% CO2.
HL60 cells were plated at 1.2×10^5 cells/ml. Eighteen hours after plating, cells in duplicate were treated with drug. Four days later, the cells were harvested and a nitro blue tetrazolium reduction assay was performed (Collins et al., 1979; J. Exp. Med. 149:969-974). The percentage of differentiated cells was determined by counting a total of 200 cells and recording the number that contained intracellular black-blue formazan deposits. Verification of differentiation to monocytic cells was determined by measuring phagocytic activity (data not shown).

Experiment [2] has as its system 24-hydroxylase (24Ohase) gene promoter. Description: In vitro transcription assay (luciferase reporter in ROS 17/2.8 bone cells). It counts as cell-based. The following applies: FIG. 3; for EC50: ROS 17/2.8 cells, 24Ohase promoter-luciferase, 16 h, read-out: EC50, transcriptional activity in bone cells. The method, then: Transcription activity was measured in ROS 17/2.8 (bone) cells that were stably transfected with a 24-hydroxylase (24Ohase) gene promoter upstream of a luciferase reporter gene (Arbour et al., 1998). Cells were given a range of doses. Sixteen hours after dosing the cells were harvested and luciferase activities were measured using a luminometer.
RLU=Relative Luciferase Units.

Experiment [3] can be described thus: Bone calcium mobilization (serum calcium) in vitamin D-deficient rats. Format: in vivo, rat. The method, then: (§1) Male, weanling Sprague-Dawley rats were placed on Diet 11 (0.47% Ca) diet +AEK for one week followed by Diet 11 (0.02% Ca) +AEK for 3 weeks. The rats were then switched to a diet containing 0.47% Ca for one week followed by two weeks on a diet containing 0.02% Ca. Dose administration began during the last week on 0.02% calcium diet. Four consecutive ip doses were given approximately 24 hours apart. Twenty-four hours after the last dose, blood was collected from the severed neck and the concentration of serum calcium determined as a measure of bone calcium mobilization. The first 10 cm of the intestine was also collected for intestinal calcium transport analysis using the everted gut sac method.

Experiment [4] can be described thus: Intestinal calcium transport (everted gut sac) in vitamin D-deficient rats. Format: in vivo, rat. The settings on record: for Intestinal calcium transport: everted gut sac, vitamin D-deficient rats, FIG. 5. As to the method: as §1
Experiment [5] deals with T1, full-length recombinant rat vitamin D receptor (Rattus norvegicus, UniProt P13053).
T1 construct: Full-length recombinant rat receptor was expressed in E. coli; histidine tag (C); made in house; host or cells: E. coli BL21 (DE3) Codon Plus RIL
T1 sequence (P13053 1-423): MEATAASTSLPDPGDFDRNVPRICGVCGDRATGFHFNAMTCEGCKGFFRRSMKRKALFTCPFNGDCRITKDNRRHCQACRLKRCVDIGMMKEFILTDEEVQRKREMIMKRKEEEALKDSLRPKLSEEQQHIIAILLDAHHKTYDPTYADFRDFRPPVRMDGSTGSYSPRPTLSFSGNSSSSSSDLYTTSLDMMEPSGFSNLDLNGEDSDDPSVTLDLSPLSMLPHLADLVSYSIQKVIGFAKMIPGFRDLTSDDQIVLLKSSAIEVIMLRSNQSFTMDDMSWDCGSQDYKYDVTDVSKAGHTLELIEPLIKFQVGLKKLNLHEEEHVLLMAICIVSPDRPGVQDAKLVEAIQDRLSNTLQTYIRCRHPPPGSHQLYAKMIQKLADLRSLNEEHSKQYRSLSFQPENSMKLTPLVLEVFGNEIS
Description: Vitamin D receptor binding (competition with [3H]-1,25(OH)2D3). The settings on record: full-length recombinant rat VDR; FIG. 1. As to the method: Full-length recombinant rat receptor was expressed in E. coli BL21 (DE3) Codon Plus RIL cells and purified to homogeneity using two different column chromatography systems. The first system was a nickel affinity resin that utilizes the C-terminal histidine tag on this protein. The protein that was eluted from this resin was further purified using ion exchange chromatography (S-Sepharose Fast Flow). Aliquots of the purified protein were quick frozen in liquid nitrogen and stored at −80° C. until use. For use in binding assays, the protein was diluted in TEDK50 (50 mM Tris, 1.5 mM EDTA, pH7.4, 5 mM DTT, 150 mM KCl) with 0.1% Chaps detergent. The receptor protein and ligand concentration were optimized such that no more than 20% of the added radiolabeled ligand was bound to the receptor.
Radiolabeled and unlabeled ligands were added to 100 mcl of the diluted protein at a final ethanol concentration of ≦10%, mixed and incubated overnight on ice to reach binding equilibrium. The following day, 100 mcl of hydroxylapatite slurry (50%) was added to each tube and mixed at 10-minute intervals for 30 minutes. […] After the final wash, the pellets were transferred to scintillation vials containing 4 ml of Biosafe II scintillation cocktail, mixed and placed in a scintillation counter. Total binding was determined from the tubes containing only radiolabeled ligand.

With `C=C1/C(=C\C=C2/CCC[C@]3(C)[C@@H]([C@H](C)CCCC(C)(C)O)CC[C@@H]23)C[C@@H](O)C[C@@H]1O` [1,25(OH)2D3, 1α,25-dihydroxyvitamin D3, reference compound], the results for the concentration giving a half-maximal response (EC50) in experiment [1] and in experiment [2] were 20 nM and 0.2 nM, respectively. Further, the “Serum calcium levels (bone calcium mobilization)” value in experiment [3] (at the dosage tested, vitamin D-deficient rats on low calcium diet (0.02%), FIG. 4) was “increased serum calcium levels”. The Intestinal calcium transport result in experiment [4] (260 pmol/day) was “promotes a significant increase”.

For `CCC(C)(C)C1CCC2C(=CC=C3CC(O)C(=CCCO)C(O)C3)CCCC21C` (stereo not drawn) [20DC, 1α-hydroxy-2-[3′-hydroxypropylidene]-20-methyl-19,24,25,26,27-pentanorvitamin D3], the “Binding to vitamin D receptor compared to 1,25-(OH)2D3 (in words)” value in experiment [5] was “bound equally well”. Also, in experiment [5], the Ki amounted to 0.08 nM. For the same compound, in experiment [1], the “HL-60 cell differentiation potency compared to 1,25(OH)2D3 (in words)” value is listed as “about as potent as 1,25(OH)2D3”. Further, the 50% effective concentration (EC50) came out at 50 nM in experiment [1] (Homo sapiens, HL-60, 96 h) and 2 nM in experiment [2]. For the same compound, in experiment [2], the “Transcriptional activity in bone cells compared to 1α,25-dihydroxyvitamin D3 (in words)” value is “about the same transcriptional activity”. In addition, the “Bone calcium mobilization (serum calcium)” value in experiment [3] (260 pmol/day ip for 4 consecutive days, vitamin D-deficient rats on low calcium diet (0.02%), FIG. 4) is on record as “did not result in mobilization of bone calcium”; in experiment [3] (2340 pmol/day ip for 4 consecutive days, vitamin D-deficient rats on low calcium diet (0.02%), FIG. 4) it was “without any substantial effect”. Besides, the “Bone calcium mobilization activity compared to 1,25(OH)2D3 (in words)” value in experiment [3] (FIG. 4, overall) is on record as “very little bone calcium mobilization activity”. In addition, the Intestinal calcium transport result in experiment [4] (260 pmol/day) and in experiment [4] (2340 pmol/day) was “does not promote intestinal calcium transport” each time. For the same compound, the “Stimulating intestinal calcium transport compared to 1,25(OH)2D3 (in words)” value in experiment [4] (FIG. 5, overall) is “very little activity”.
